14 molecules from patent publication EP0273199A2, “Uses of 3,4-diphenyl piperidine derivatives or medicines, 3,4-diphenyl piperidine derivatives, and process for their preparation” (LABORATOIRES HOECHST S.A., priority 1986, dated 1988) can be followed below.

Assay [1] has as its system durch Reserpin induzierten Hypothermie. Kind of assay: Antireserpine activity (reserpine-induced hypothermia). The assay is classed as in vivo, Maus. The protocol:
Zur Zeit 0 erhalten die Mäuse intraperitoneal Reserpin (2,5 mg/kg).
4 Stunden danach, wenn die Hypothermie genügend stark erscheint (30 bis 33°C), verabreicht man die verschiedenen zu untersuchenden Verbindungen i.p. oder p.o. Alle 30 Minuten über einen Zeitraum von 2 Stunden mißt man die Rektaltemperatur mit einer auf konstante Tiefe eingeführten, ein Thermoelement tragenden Sonde. Die Rektaltemperatur der mit verschiedenen erfindungsgemäßen Verbindungen behandelten Tiere wird mit der Temperatur einer Kontrollgruppe verglichen, die destilliertes Wasser auf die gleiche Weise wie die untersuchten Verbindungen erhält.
Die Akinesie (fehlende Bewegungen) und Ptose (Öffnungsgrad des Augenlids von 0 bis 4 nach Rubin u.a 1957) werden ebenfalls alle 30 Minuten über einen Zeitraum von 2 Stunden bewertet.
Die eine antidepressive Aktivität besitzenden Produkte wirken der durch Reserpin induzierten Hypothermie entgegen. Für jede Dosis der verabreichten Verbindung berechnet man die prozentuale Hemmung der Hypothermie.

Another assay relates to Toxizität des Yohimbins. As to the kind of experiment: Potentiation of yohimbine toxicity. The assay is classed as in vivo, Maus. Particulars: for Erste wirksame Dosis Yohimbin: mouse, i.p.; for minimal effective dose: Mus musculus, ip. As for the experimental part: Wirkung auf die Toxizität des Yohimbins
Zur Zeit 0 erhalten die Mäuse entweder destilliertes Wasser oder verschiedene zu untersuchende Verbindungen i.p. 30 Minuten danach verabreicht man ihnen subkutan eine infratoxische Dosis von 25 mg/kg Yohimbinchlorhydrat.
Die Mortalität wird jede Stunde über einen Zeitraum von 4 Stunden verfolgt und dann nach 24 Stunden notiert.
Die eine antidepressive Aktivität besitzenden Produkte verursachen eine Potenzierung der Toxizität des Yohimbins.

Another assay relates to Motoraktivität. As to the kind of experiment: Actimetry (motor activity, photocell actimeter). Particulars: mouse; direction of change of motor activity. The assay is classed as in vivo, Maus. The source says:
Die Motoraktivität wird mittels Photozellenaktimetern bestimmt (Boissier und Simon, Arch. Int. Pharmacodyn. 1965, 158, 212-221).
Die Mäuse (10 oder ein Vielfaches von 10 pro Gruppe) werden unmittelbar nach i.p. Verabreichung der zu untersuchenden Verbindungen in das Aktimeter eingesetzt. Die Motoraktivität wird danach bis zur 60. Minute gemessen. De Zähler werden nach 30 Minuten abgelesen und dann auf 0 zurückgestellt und im Verlauf von 30 Minuten alle 10 Minuten abgelesen.
Die Beweglichkeit der mit den verschiedenen Verbindungen behandelten Tiere wird mit derjenigen einer destilliertes Wasser erhaltenden Kontrollgruppe verglichen.
Die eine psychostimulierende Aktivität besitzenden Produkte verursachen eine Zunahme der Beweglichkeit.

The test system of the next assay is Apomorphin 16 mg/kg. As to the kind of experiment: Antiapomorphine activity (apomorphine 16 mg/kg s.c., hypothermia). The class given is in vivo, Maus. As for the experimental part:
Zur Zeit 0 nach Ausgleich der Reaktaltemperaturen werden die Mäuse (6 pro Gruppe) in deren Beobachtung gestattende Einzelkäfige (11 x 3,5 x 4 cm) eingeetzt. 30 Minuten nach i.p. bzw. p.o. Verabreichung der Testsubstanz erhalten sie Apomorphin subkutan in einer Dosis von 16 mg/kg. Die Rektaltemperatur wird 30 Minuten nach dem Apomorphin gemessen. Die Kontrolltiere erhalten destilliertes Wasser statt der zu untersuchenden Verbindungen. Die bei diesen Kontrolltieren, die 16 mg/kg Apomorphin erhalten haben, beobachtete Hypothermie liegt im Durchschnitt bei 33°C. Für jede Verbindungsdosis berechnet man die prozentuale Hemmung der Hypothermie.

Assay [2] has as its system Maus. As to the kind of experiment: Hot plate test (licking and jumping), analgesia. The assay is classed as in vivo. The protocol:
Heizplattentest: Lecken und Springen, wie von Jacob und Blozovski beschrieben (Arch. Int. Pharmacodyn. 133, 296-209, 1961).
Die in Sekunden ausgedrückten Reaktionszeiten auf einer Heizplatte werden unter Berücksichtigung des Leckens der Vorderpfoten und Springen des Tieres als Kriterien bewertet. Die beiden Reaktionen werden am selben, anfänglich untrainierten Tier mit einer maximalen Ansprechzeit (Obergrenze) von 240 Sekunden beobachtet. Die Temperatur der Platte wird auf 56,6°C gehalten.
Morphin als positive Kontrolle wird subkutan und die übrigen Substanzen (mg/kg) werden intraperitoneal 30 Minuten vor dem Test verabreicht. Positives Ansprechen zeigt sich in einer Zunahme der Reaktionszeit.
Wird der schadensverhütenden Wirkung eine Substanz durch Naloxon entegengewirkt, so kann man schließen, daß die Substanz tatsächlich eine analgetische Wirkung besitzt.
(In general: In hot-plate and tail-flick tests a longer latency is read as antinociception.)

Assay [3] deals with Maus. Kind of assay: Tail suspension test. The assay is classed as in vivo. As to conditions: ip; mouse, i.p.; footnote of Tabelle 1; read-out: tail suspension test= positiv ab. The source says: Schwanzaufhängungstest an der Maus wie von Stéru u.a. beschrieben (Psychopharmacology 85, 367-370, 1985).
Die Substanzen werden intraperitoneal 30 Minuten vor dem Test verabreicht und die Tiese isoliert (10 Mäuse pro Dosis).
Man bewertet die Dauer der Unbeweglichkeit, ausgedrückt in Sekunden über die 6 Minuten des Tests. Man untersucht auf eine Verkürzung dieser Unbeweglichkeitszeit.

The next assay relates to L-5-Hydroxytryptophan. Kind of assay: Potentiation of L-5-hydroxytryptophan effects (head twitches, tremor). The class given is in vivo, Maus. As to conditions: mouse, 1 mg/kg i.p., 30 min before L-5 HTP 4 mg/kg i.p. The protocol:
L-5 HTP induziert an der Maus ruckartige Bewegungen des Kopfes (Kopfzuckungen). Die zu untersuchenden Substanzen werden den Tieren (10 Mäuse pro Dosis) intraperitoneal 30 Minuten vor dem L-5 HTP (4 mg/kg intraperitoneal) verabreicht. Die ruckartigen Kopfbewegungen und der Tremor werden 1 Minutre lang alle 10 Minuten im Verlauf einer Stunde bewertet. Desimipramin und Indalpin sind die Kontrol-(Vergleichs-)verbindungen. Ein antidepressiver Effekt zeigt sich durch eine Zunahme der ruckartigen Kopfbewegungen und des Tremors.

The mark [4] stands for this setting: mouse, i.p., only or lowest value of the cell.
The mark [5] stands for this setting: only or lowest value of the cell.
The mark [6] stands for this setting: Mus musculus, ip, read-out: Erste wirksame Dosis Reserpin, mouse, i.p., only or lowest value of the cell.
The mark [7] stands for this setting: Mus musculus, ip, read-out: Erste wirksame Dosis Apomorphin 16 mg/kg, mouse, i.p., only or lowest value of the cell.
Where [8] appears, read: mouse, Tabelle 5a, Naloxon alone 0,5 mg/kg.
Where [9] appears, read: ip, mouse, i.p., only or lowest value of the cell, read-out: Erste wirksame Dosis Reserpin.
[10] abbreviates: ip, mouse, i.p., only or lowest value of the cell, read-out: Erste wirksame Dosis Apomorphin 16 mg/kg.
[11] abbreviates: read-out: Erste wirksame Dosis Yohimbin, mouse, i.p., only or lowest value of the cell.
Where [12] appears, read: Mus musculus, read-out: Erste wirksame Dosis Apomorphin 16 mg/kg, mouse, further value in the same cell, route not stated (lowest = i.p.; p.o. also tested).
[13] abbreviates: mouse, reaction time, 8 mg/kg i.p., plate 56,6°C.

Several values for one entry are separate records, joined by “and”; a condition that tells them apart may be missing. Equal entries are not always repeated. Structures can show the parent of a compound that is named as a salt. Where two headings read alike, the source gives them in different places.

With `Clc1ccc([C@@H]2CCNC[C@H]2c2ccccc2)cc1Cl` [15 (Base)], in assay [1] (setting [4]), the “Erste wirksame Dosis Reserpin” value is reported as 0,5 mg/kg. The “Erste wirksame Dosis Yohimbin” value in the assay on Toxizität des Yohimbins (setting [5]) was 4 mg/kg. Also, the Aktimetrie result in the assay on Motoraktivität is “↗”. The “Erste wirksame Dosis Apomorphin 16 mg/kg” value in the assay on Apomorphin 16 mg/kg (setting [4]) is 0,5 mg/kg.

For `Clc1ccc(C2CNCCC2c2ccccc2)cc1` (stereo not drawn) [8 (Base), trans-3-(4-Chlorphenyl)-4-phenylpiperidin], the minimal effective dose stood at 8 mg/kg in assay [1] (setting [6]) and 16 mg/kg in the assay with Apomorphin 16 mg/kg (setting [7]). For the same molecule, the Aktimetrie entry in the assay with Motoraktivität is on record as “↘”.

As to `C=CCN1CC[C@]23c4c5ccc(O)c4O[C@H]2C(=O)CC[C@@]3(O)[C@H]1C5` [Naloxon, reference compound], in the assay with Maus [2] (setting [8]), the Pfotenlecken is 5,5 ± 0,3 Sekunden and 5,2 ± 0,3 Sekunden; the Sprünge was 63 ± 6 Sekunden and 67 ± 5 Sekunden.

Regarding `CN1CC[C@]23c4c5ccc(O)c4O[C@H]2[C@@H](O)C=C[C@H]3[C@H]1C5` [Morphin, reference compound], in the assay on Maus [2] (in vivo, sc, 2 mg/kg), the Pfotenlecken is recorded as 8,1 ± 0,6 p < 0,01 Sekunden and the Sprünge is 158 ± 17 p < 0,01 Sekunden.

For `COc1ccc([C@@H]2CCNC[C@H]2c2ccccc2)cc1` (racemic) [Beispiel 2, trans-4-(4-Methoxyphenyl)-3-phenylpiperidinchlorhydrat], the minimal effective dose in assay [1] (setting [9]) is 4 mg/kg; in the assay on Maus [3], no less than 8 mg/kg; in the assay with Apomorphin 16 mg/kg (setting [10]) it was 1 mg/kg; in the assay on Apomorphin 16 mg/kg (mouse, further value in the same cell, route not stated (lowest = i.p.; p.o. also tested), read-out: Erste wirksame Dosis Apomorphin 16 mg/kg), 2 mg/kg. In addition, in the assay with Motoraktivität, the Aktimetrie entry is listed as “↘”.

With `Clc1ccc(C2CNCCC2c2ccccc2)cc1` (stereo not drawn) [8 (HCl-Salz), trans-3-(4-Chlorphenyl)-4-phenylpiperidin], in assay [1] (setting [4]), the “Erste wirksame Dosis Reserpin” value was 4 mg/kg. The minimal effective dose with Toxizität des Yohimbins (setting [11]) is 16 mg/kg. In the assay with Motoraktivität, the Aktimetrie entry is “↘”. Also, the “Erste wirksame Dosis Apomorphin 16 mg/kg” value with Apomorphin 16 mg/kg (setting [4]) is 8 mg/kg.

`c1ccc([C@@H]2CCNC[C@H]2c2ccccc2)cc1` (relative stereo) [21 (HCl-Salz), trans-3,4-Diphenylpiperidin]: the “Erste wirksame Dosis Reserpin” value in assay [1] (setting [4]) is reported as 4 mg/kg. In addition, the “Erste wirksame Dosis Yohimbin” value in the assay with Toxizität des Yohimbins (setting [5]) came out at 16 mg/kg. Also, in the assay with Motoraktivität, the Aktimetrie result is listed as “↗”. For the same molecule, the “Erste wirksame Dosis Apomorphin 16 mg/kg” value with Apomorphin 16 mg/kg (setting [4]) is reported as 4 mg/kg.

`Clc1ccc(C2CNCCC2c2ccccc2)cc1Cl` (stereo not drawn) [Beispiel 13, trans-3-(3,4-Dichlorphenyl)-4-phenyl-piperidin-maleinat]: the minimal effective dose worked out at 8 mg/kg in assay [1] (setting [6]), 16 mg/kg in the assay with Toxizität des Yohimbins (setting [11]) and 4 mg/kg in the assay with Apomorphin 16 mg/kg (setting [7]). Moreover, the Aktimetrie result in the assay with Motoraktivität is “↘”.

In the case of `CC(=O)Oc1ccc([C@@H]2CCNC[C@H]2c2ccccc2)cc1` (racemic) [Beispiel 11, trans-4-(4-Acetoxyphenyl)-3-phenylpiperidinchlorhydrat], the figures for the minimal effective dose (in assay [1] (setting [9]); with Toxizität des Yohimbins (setting [11]); in the assay on Apomorphin 16 mg/kg (setting [10])) were 4 mg/kg, 16 mg/kg and 1 mg/kg, respectively.

In the case of `Cc1ccc([C@@H]2CCNC[C@H]2c2ccccc2)cc1` (relative stereo) [10 (HCl-Salz), trans-4-(4-Methylphenyl)-3-phenylpiperidin], the minimal effective dose in assay [1] (Mus musculus, read-out: Erste wirksame Dosis Reserpin, mouse, further value in the same cell, route not stated (lowest = i.p.; p.o. also tested)) was 16 mg/kg. For the same molecule, the “Erste wirksame Dosis Reserpin” value in assay [1] (setting [4]) was 4 mg/kg. Moreover, the Aktimetrie entry in the assay with Motoraktivität is given as “↘”. Further, the “Erste wirksame Dosis Apomorphin 16 mg/kg” value in the assay on Apomorphin 16 mg/kg (setting [4]) was 16 mg/kg.

As to `Cc1ccc([C@@H]2CCNC[C@H]2c2ccccc2)cc1` (relative stereo) [10 (Base), trans-4-(4-Methylphenyl)-3-phenylpiperidin], the “Erste wirksame Dosis Reserpin” value in assay [1] (setting [4]) is 16 mg/kg. In addition, the minimal effective dose was found to be 16 mg/kg in the assay with Toxizität des Yohimbins (setting [11]), 16 mg/kg with Apomorphin 16 mg/kg (setting [7]) and 32 mg/kg with Apomorphin 16 mg/kg (setting [12]). For the same molecule, in the assay on Motoraktivität, the Aktimetrie result was “↘”.

With `Oc1ccc([C@@H]2CCNC[C@H]2c2ccccc2)cc1` (racemic) [7 (1.Stufe), trans-4-(4-Hydroxyphenyl)-3-phenylpiperidin-bromhydrat], the minimal effective dose in assay [1] (setting [6]) worked out at 32 mg/kg; with Toxizität des Yohimbins (setting [11]) it was 4 mg/kg; with Toxizität des Yohimbins (read-out: Erste wirksame Dosis Yohimbin, mouse, further value in the same cell, route not stated (lowest = i.p.)), 16 mg/kg; in the assay on Apomorphin 16 mg/kg (setting [7]) it was 0.5 mg/kg. Moreover, the Aktimetrie entry with Motoraktivität is “↘”.

For the molecule `Clc1ccc([C@@H]2CCNC[C@H]2c2ccccc2)cc1` [Beispiel 18], the minimal effective dose in assay [1] (setting [6]) turned out to be 0.5 mg/kg; in the assay with Toxizität des Yohimbins (setting [11]), 1 mg/kg; with Apomorphin 16 mg/kg (setting [7]) it was 0.5 mg/kg; with Apomorphin 16 mg/kg (setting [12]), 2 mg/kg. Besides, the Aktimetrie result in the assay on Motoraktivität is recorded as “↗”.

For the molecule `c1ccc2c(CCC3CCNCC3)c[nH]c2c1` [Indalpin, reference compound], in the assay on Maus [2] (setting [13]), the Pfotenlecken is recorded as 8,4 ± 1,2 p < 0,02 Sekunden and the Sprünge is 132 ± 12 p ± 0,01 Sekunden. Besides, in the assay with L-5-Hydroxytryptophan, the Tremor is on record as 2,0 ± 0,7 and the “ruckartige Kopfbewegungen” value was 4,1 ± 0,7 p < 0,01.
